Experimental data reported in patent publication US8952249B2, “1,4-fullerene addends in photovoltaic cells” (The Regents of the University of California, priority 2010, dated 2015).

Experiments:
[1] = Cyclic voltammetry: reduction potentials and energy of the LUMO; type: physicochemical; conditions: 1,2-dichlorobenzene, Bu4NClO4 (0.1 M), Pt wire counter electrode, 50 mV/s scan rate
Text: The synthesis of fullerenol was previously reported.^6 From fullerenol, we herein report on the syntheses of a set of derivatives by arylation as described in FIG. 1. In a typical reaction, fullerenol is reacted with a specific substrate (a substituted aryl) used as the solvent in the presence of p-toluene sulfonic acid (TsOH) as the catalyst. Following this procedure we synthesized: PEHOB (FIG. 2) (C60 functionalized with a phenyl group on C1 and an ethylhexyloxybenzene group on C4), PCVM (FIG. 3) (Phenyl on C1 and phenylvaleric acid methyl ester on C4), PTHOB (FIG. 4) (phenyl on C1 and trihexyloxyphenyl on C4), PFOH (FIG. 5) (phenyl on C1 and hydroxyl on C4); PFTFP (FIG. 6) (p-trifluorophenyl on C1 and pentafluorophenyl on C4) and ANP (FIG. 7) (phenyl on C1 and aniline on C4). 1H NMR, 13C NMR, 19F NMR and field desorption (FD) mass spectroscopy confirmed the identity of the products. The adducts were further characterized by cyclic voltammetry (CV) and UV-vis spectroscopy. […] From the first reduction potential calculated by CV we determined the energy of the LUMO. An estimated value of the HOMO was inferred from the onset of the UV-vis spectra. In order to modify the property of the derivatives, we appended (i) long alkyl chains to increase solubility and (ii) electron withdrawing or (iii) electron donating groups to stabilize or destabilize the energy of the LUMO respectively. Due to the spherical shape of C60, heteroatoms or functional groups appended on the fullerene can only affect the energy of the molecular orbitals by induction. Therefore, an electron donating group directly bound to C60 such a methoxy will […] the energy of the LUMO because of the higher electronegativity of the oxygen. […] These values are in agreement with previous reports.^8, 9 Table 1 (see below) summarizes the electrochemical data calculated for all the derivatives. […]

[2] = parameters: unit not given here; conditions: PCBM analogues described by Hummelen et al.; cited from earlier work

Compound: COC(=O)CCCC1(c2ccccc2)C23c4c5c6c7c8c9c(c%10c%11c2c2c%12c4c4c%13c5c5c7c7c8c8c%14c9c%10c9c%10c%11c2c2c%11c%12c4c4c%12c%13c5c5c7c7c8c8c%14c9c9c%10c2c2c%11c4c4c%12c5c7c5c8c9c2c45)C613 (stereo not shown) [PCBM, [6,6]-phenyl-C61-butyric acid methyl ester]
- E1red [1]: −1.056 V vs Fc/Fc+
- E2red [1]: −1.471 V vs Fc/Fc+
- E3red [1]: −1.957 V vs Fc/Fc+
- redox potential [2]: −1.08
